Data reported in ChEMBL document CHEMBL3885881, “DrugMatrix”.

Species: Rattus norvegicus
Assay: DrugMatrix - Regimen: Daily Repeat
Format: toxicity, organism-based, Sprague-Dawley
Parameters: regimen Daily Repeat, gender Male, age 6-8 weeks
Details: in vivo, po, route oral GAVAGE, vehicle 100 % WATER; for BASOPHIL / EOSINOPHIL / ERYTHROCYTE COUNT / HEMATOCRIT / HEMOGLOBIN / LEUKOCYTE COUNT / LYMPHOCYTE / MEAN CORPUSCULAR HEMOGLOBIN / MEAN CORPUSCULAR HEMOGLOBIN CONCENTRATION / MEAN CORPUSCULAR VOLUME / MONOCYTE / NEUTROPHIL / PLATELET COUNT: tissue Blood; for ALANINE AMINOTRANSFERASE / ALBUMIN / ALKALINE PHOSPHATASE / ASPARTATE AMINOTRANSFERASE / BLOOD UREA NITROGEN / CARBON DIOXIDE / CHLORIDE / CHOLESTEROL / CREATINE PHOSPHOKINASE / CREATININE / GLUCOSE / LACTATE DEHYDROGENASE / LIPASE / PHOSPHORUS / POTASSIUM / SODIUM / TOTAL BILIRUBIN / TOTAL PROTEIN / URIC ACID: tissue Plasma
[1] = 0 mg/kg, 96 h, dose level Control, time 4 day
[2] = 0 mg/kg, […], dose level Control, time 6 day
[3] = 0 mg/kg, […], dose level Control, time 14 day
[4] = […], 96 h, dose 1.6 mg/Kg, dose level High, time 4 day
[5] = […], dose 1.6 mg/Kg, dose level High, time 6 day
[6] = […], dose 1.6 mg/Kg, dose level High, time 14 day

What does the source list for O=[Se](=O)([O-])[O-].[Na+].[Na+] [SODIUM SELENATE]?
BASOPHIL [1]: 0.47%; EOSINOPHIL [1]: 0.58%; ERYTHROCYTE COUNT [1]: 6.84 x10E6/uL; HEMATOCRIT [1]: 44.27%; HEMOGLOBIN [1]: 14.08 G/DL; LEUKOCYTE COUNT [1]: 13.39 x10E3/uL; LYMPHOCYTE [1]: 83.57%; MEAN CORPUSCULAR HEMOGLOBIN [1]: 20.57 pg; MEAN CORPUSCULAR HEMOGLOBIN CONCENTRATION [1]: 31.77 G/DL; MEAN CORPUSCULAR VOLUME [1]: 64.68 fL; MONOCYTE [1]: 1.92%; NEUTROPHIL [1]: 12.95%; PLATELET COUNT [1]: 1533.67 x10E3/uL; ALANINE AMINOTRANSFERASE [1]: 28.17 u/L; ALBUMIN [1]: 3.82 G/DL; ALKALINE PHOSPHATASE [1]: 354.33 u/L; ASPARTATE AMINOTRANSFERASE [1]: 73.83 u/L; BLOOD UREA NITROGEN [1]: 16 mg/dL; CARBON DIOXIDE [1]: 27.17 mmol/L; CHLORIDE [1]: 104.83 MEQ/L; CHOLESTEROL [1]: 83.33 mg/dL; CREATINE PHOSPHOKINASE [1]: 288 u/L; CREATININE [1]: 0.33 mg/dL; GLUCOSE [1]: 181.33 mg/dL; LACTATE DEHYDROGENASE [1]: 173.17 u/L; LIPASE [1]: 17.67 u/L; PHOSPHORUS [1]: 11.5 mg/dL; POTASSIUM [1]: 6.8 MEQ/L; SODIUM [1]: 147 MEQ/L; TOTAL BILIRUBIN [1]: 0.35 mg/dL; TOTAL PROTEIN [1]: 6.35 G/DL; URIC ACID [1]: 1.55 mg/dL; BASOPHIL [2]: 0.33%; EOSINOPHIL [2]: 0.85%; ERYTHROCYTE COUNT [2]: 6.98 x10E6/uL; HEMATOCRIT [2]: 38.58%; HEMOGLOBIN [2]: 14.25 G/DL; LEUKOCYTE COUNT [2]: 11.01 x10E3/uL; LYMPHOCYTE [2]: 85.07%; MEAN CORPUSCULAR HEMOGLOBIN [2]: 20.47 pg; MEAN CORPUSCULAR HEMOGLOBIN CONCENTRATION [2]: 31.45 G/DL; MEAN CORPUSCULAR VOLUME [2]: 64.9 fL; MONOCYTE [2]: 1.9%; NEUTROPHIL [2]: 11.42%; PLATELET COUNT [2]: 1289.67 x10E3/uL; BASOPHIL [3]: 0.52%; EOSINOPHIL [3]: 0.55%; ERYTHROCYTE COUNT [3]: 7.72 x10E6/uL; HEMATOCRIT [3]: 51.87%; HEMOGLOBIN [3]: 15.32 G/DL; LEUKOCYTE COUNT [3]: 16.2 x10E3/uL; LYMPHOCYTE [3]: 85.13%; MEAN CORPUSCULAR HEMOGLOBIN [3]: 19.85 pg; MEAN CORPUSCULAR HEMOGLOBIN CONCENTRATION [3]: 29.52 G/DL; MEAN CORPUSCULAR VOLUME [3]: 67.17 fL; MONOCYTE [3]: 1.7%; NEUTROPHIL [3]: 11.6%; PLATELET COUNT [3]: 1104.17 x10E3/uL; ALANINE AMINOTRANSFERASE [2]: 28.17 u/L; ALBUMIN [2]: 3.78 G/DL; ALKALINE PHOSPHATASE [2]: 385.33 u/L; ASPARTATE AMINOTRANSFERASE [2]: 78 u/L; BLOOD UREA NITROGEN [2]: 16.83 mg/dL; CARBON DIOXIDE [2]: 26.67 mmol/L; CHLORIDE [2]: 106.83 MEQ/L; CHOLESTEROL [2]: 82.67 mg/dL; CREATINE PHOSPHOKINASE [2]: 225.5 u/L; CREATININE [2]: 0.27 mg/dL; GLUCOSE [2]: 179.5 mg/dL; LACTATE DEHYDROGENASE [2]: 98.33 u/L; LIPASE [2]: 14.67 u/L; PHOSPHORUS [2]: 12.28 mg/dL; POTASSIUM [2]: 7.03 MEQ/L; SODIUM [2]: 150.33 MEQ/L; TOTAL BILIRUBIN [2]: 0.38 mg/dL; TOTAL PROTEIN [2]: 6.45 G/DL; URIC ACID [2]: 1.6 mg/dL; ALANINE AMINOTRANSFERASE [3]: 37 u/L; ALBUMIN [3]: 4.13 G/DL; ALKALINE PHOSPHATASE [3]: 342 u/L; ASPARTATE AMINOTRANSFERASE [3]: 71 u/L; BLOOD UREA NITROGEN [3]: 16.5 mg/dL; CARBON DIOXIDE [3]: 28.17 mmol/L; CHLORIDE [3]: 104 MEQ/L; CHOLESTEROL [3]: 70.67 mg/dL; CREATINE PHOSPHOKINASE [3]: 287.67 u/L; CREATININE [3]: 0.38 mg/dL; GLUCOSE [3]: 150.17 mg/dL; LACTATE DEHYDROGENASE [3]: 81.33 u/L; LIPASE [3]: 16 u/L; PHOSPHORUS [3]: 11.32 mg/dL; POTASSIUM [3]: 6.22 MEQ/L; SODIUM [3]: 147.33 MEQ/L; TOTAL BILIRUBIN [3]: 0.43 mg/dL; TOTAL PROTEIN [3]: 6.55 G/DL; URIC ACID [3]: 1.38 mg/dL; BASOPHIL [4]: 0.33%; EOSINOPHIL [4]: 0.73%; ERYTHROCYTE COUNT [4]: 6.6 x10E6/uL; HEMATOCRIT [4]: 40.23%; HEMOGLOBIN [4]: 12.93 G/DL; LEUKOCYTE COUNT [4]: 11.54 x10E3/uL; LYMPHOCYTE [4]: 85%; MEAN CORPUSCULAR HEMOGLOBIN [4]: 19.6 pg; MEAN CORPUSCULAR HEMOGLOBIN CONCENTRATION [4]: 32.13 G/DL; MEAN CORPUSCULAR VOLUME [4]: 60.97 fL; MONOCYTE [4]: 1.8%; NEUTROPHIL [4]: 11.6%; PLATELET COUNT [4]: 1460.67 x10E3/uL; ALANINE AMINOTRANSFERASE [4]: 31.33 u/L; ALBUMIN [4]: 3.73 G/DL; ALKALINE PHOSPHATASE [4]: 296.67 u/L; ASPARTATE AMINOTRANSFERASE [4]: 69.67 u/L; BLOOD UREA NITROGEN [4]: 16 mg/dL; CARBON DIOXIDE [4]: 24 mmol/L; CHLORIDE [4]: 107.67 MEQ/L; CHOLESTEROL [4]: 75.33 mg/dL; CREATINE PHOSPHOKINASE [4]: 411.33 u/L; CREATININE [4]: 0.4 mg/dL; GLUCOSE [4]: 170.67 mg/dL; LACTATE DEHYDROGENASE [4]: 107.33 u/L; LIPASE [4]: 18 u/L; PHOSPHORUS [4]: 11.1 mg/dL; POTASSIUM [4]: 6.2 MEQ/L; SODIUM [4]: 148.33 MEQ/L; TOTAL BILIRUBIN [4]: 0.4 mg/dL; TOTAL PROTEIN [4]: 6.2 G/DL; URIC ACID [4]: 1.3 mg/dL; BASOPHIL [5]: 0.27%; EOSINOPHIL [5]: 0.3%; ERYTHROCYTE COUNT [5]: 7.08 x10E6/uL; HEMATOCRIT [5]: 44.53%; HEMOGLOBIN [5]: 14.1 G/DL; LEUKOCYTE COUNT [5]: 12.82 x10E3/uL; LYMPHOCYTE [5]: 83.7%; MEAN CORPUSCULAR HEMOGLOBIN [5]: 19.97 pg; MEAN CORPUSCULAR HEMOGLOBIN CONCENTRATION [5]: 31.7 G/DL; MEAN CORPUSCULAR VOLUME [5]: 62.9 fL; MONOCYTE [5]: 2.23%; NEUTROPHIL [5]: 13.07%; PLATELET COUNT [5]: 1297.33 x10E3/uL; BASOPHIL [6]: 0.42%; EOSINOPHIL [6]: 0.92%; ERYTHROCYTE COUNT [6]: 8.04 x10E6/uL; HEMATOCRIT [6]: 52.44%; HEMOGLOBIN [6]: 15.34 G/DL; LEUKOCYTE COUNT [6]: 13.75 x10E3/uL; LYMPHOCYTE [6]: 84.4%; MEAN CORPUSCULAR HEMOGLOBIN [6]: 19.12 pg; MEAN CORPUSCULAR HEMOGLOBIN CONCENTRATION [6]: 29.26 G/DL; MEAN CORPUSCULAR VOLUME [6]: 65.28 fL; MONOCYTE [6]: 2.18%; NEUTROPHIL [6]: 11.62%; PLATELET COUNT [6]: 1231.6 x10E3/uL; ALANINE AMINOTRANSFERASE [5]: 33 u/L; ALBUMIN [5]: 4.03 G/DL; ALKALINE PHOSPHATASE [5]: 331 u/L; ASPARTATE AMINOTRANSFERASE [5]: 80 u/L; BLOOD UREA NITROGEN [5]: 16.33 mg/dL; CARBON DIOXIDE [5]: 23.67 mmol/L; CHLORIDE [5]: 108.67 MEQ/L; CHOLESTEROL [5]: 74.67 mg/dL; CREATINE PHOSPHOKINASE [5]: 413 u/L; CREATININE [5]: 0.37 mg/dL; GLUCOSE [5]: 182.67 mg/dL; LACTATE DEHYDROGENASE [5]: 123 u/L; LIPASE [5]: 8 u/L; PHOSPHORUS [5]: 12.5 mg/dL; POTASSIUM [5]: 6.73 MEQ/L; SODIUM [5]: 151.67 MEQ/L; TOTAL BILIRUBIN [5]: 0.37 mg/dL; TOTAL PROTEIN [5]: 6.83 G/DL; URIC ACID [5]: 1.77 mg/dL; ALANINE AMINOTRANSFERASE [6]: 40.4 u/L; ALBUMIN [6]: 4.2 G/DL; ALKALINE PHOSPHATASE [6]: 262.8 u/L; ASPARTATE AMINOTRANSFERASE [6]: 72.4 u/L; BLOOD UREA NITROGEN [6]: 16.4 mg/dL; CARBON DIOXIDE [6]: 27.4 mmol/L; CHLORIDE [6]: 104.4 MEQ/L; CHOLESTEROL [6]: 63.8 mg/dL; CREATINE PHOSPHOKINASE [6]: 181 u/L; CREATININE [6]: 0.42 mg/dL; GLUCOSE [6]: 154.8 mg/dL; LACTATE DEHYDROGENASE [6]: 91 u/L; LIPASE [6]: 11.6 u/L; PHOSPHORUS [6]: 11.26 mg/dL; POTASSIUM [6]: 6.38 MEQ/L; SODIUM [6]: 148.4 MEQ/L; TOTAL BILIRUBIN [6]: 0.4 mg/dL; TOTAL PROTEIN [6]: 6.72 G/DL; URIC ACID [6]: 1.52 mg/dL
